Laboratory results from patent publication US8227433B2, “Use of inhibitors and antisense oligonucleotides of BTK for treating proliferative mastocytosis” (Centre National de la Recherche Scientifique (CNRS), priority 2003, dated 2012).

What was measured:
[1] = tested on: HMC1 cells; experiment: Determination of HMC1 cells sensibility to G418 (lethal geneticine dose); format: cell-based, human; details: 6 wells plate; 0 to 1.4 mg/ml tested; colonies visualized one week after seeding
Experimental: To determine, the lethal geneticine dose for HMC1, cells were seeded in 6 wells plate (10^5 cells/wells) in presence of increasing concentration of geneticine (0; 0.6; 0.8; 1; 1.2; 1.4 mg/ml). One week after seeding, colonies are visualized by crystal purple coloration. It appears that the effective dose was 1.2 mg/ml geneticine in the culture Media. Indeed, at lower doses, we observed development of HMC1 colonies. • -Infection of HMC1 Cells

[2] = tested on: BTK; experiment: BTK expression in HMC-1 clones that integrated the retrovirus vector coding for the BTK antisense RNA; format: cell-based, human; details: HMC-1 target cells which integrated the vector; 4 clones; FIG. 3
Description: 2.1 We used antisense RNA to inhibit the expression of BTK in HMC-1, which is resistant to apoptosis. In this regard, we have constructed a retrovirus vector coding for an antisense RNA containing 32 nucleotides directed to the sequence comprised in the AUG region of the BTK gene (SEQ ID No 1).
Target cells, which integrated this vector, show a significant decrease in the expression of BTK. Regarding 4 clones, we have noted a decrease of about 50% of the expression of the BTK (see FIG. 3).

[3] = tested on: HMC-1 cells; experiment: Tumor size in nude mice injected with HMC-1 cells expressing the BTK antisense; format: in vivo; details: nude mice injected with 2 millions HMC-1 cells, tumor size assessed few weeks after injection, FIG. 4
Description: We used nude mice, which have been injected with 2 millions HMC-1 cells.

[4] = tested on: HMC1 cells; experiment: G418-resistant colony formation of HMC1 cells infected with LNCX or LNCX-AS BTK virus; format: cell-based
Experimental: HMC1 cells seeded the day before in 6 wells plates (10^5 cells/ well) are infected with increasing doses of LNCX or LNCX-AS BTK virus. 24 hours after infection, cells are washed in PBS and cultured in medium containing geneticine (1.2 mg/ml). After one week, we observed the formation of colonies resistant to geneticine and whose number depends on the quantity of virus used for infection. When comparing the number of colonies of HMC1 resisting to G418 obtained from cells infected with the LNCX or LNCX-AS BTK virus, we observed independently of the virus concentration used, a lower number of colonies of cells infected with LNCX-AS BTK relative to the number of colonies of cells infected with LNCX. For equivalent quantity of virus, we obtained between 5 to 10 fold less colonies of HMC resisting to G418 by infecting with the LNCX-AS BTK virus compared to the infection with the LNCX “empty”.
The 10 to 20% surviving clones are those for which the antisense expression level is weak thereby maintaining a BTK expression level compatible with cellular survival.

Molecule	lethal (effective) geneticine dose for HMC1 [1]	decrease of the expression of the BTK [2]	anti-tumoral effect (size of the tumors) [3]	anti-tumoral effect (size of the tumors) ([3]; listed as antisens oligonucleotide directed against BTK)	cellular mortality ([4]; HMC1 cells, decrease of BTK expression by the antisense RNA)	surviving clones ([4]; HMC1 clones with weak antisense expression level)
CN[C@@H]1[C@@H](O)[C@@H](O[C@@H]2[C@@H](O)[C@H](O[C@H]3O[C@H]([C@@H](C)O)[C@@H](O)[C@H](O)[C@H]3N)[C@@H](N)C[C@H]2N)OC[C@]1(C)O [geneticine]	1.2 mg/mL					
5′ AGAATCACTGCGGCCATAGCTTCTTCTTTCTG 3′ (chemistry not given here) [BTK antisense]		about 50%	significant anti-tumoral effects	significantly decrease the size of tumors	80 to 90%	10 to 20%
